Read-outs that look alike come from different tables or passages of the source. Marks after values point to notes of the source that are not given here. One block for each compound: values may come before it.
Assays:
[1] = DPPH radical scavenging assay; assay type: biochemical; details: Trolox equivalent antioxidant capacity
Description: (§1) The antioxidant activities of the 70% methanol extract of M. volcanica and the separated compounds were evaluated using DPPH, ABTS, and ORAC assays. The results were expressed as Trolox equivalent antioxidant capacity (TEAC, µg Trolox/µg extract or µM Trolox/µM compound), which were calculated with the equations obtained from the calibration curves of Trolox standards (final concentrations) versus their DPPH and ABTS radical inhibition (%) and the net AUC value (ORAC assay).
The DPPH radical scavenging assay was carried out using an EL800 microplate reader (Bio-Tek Instruments, Winooski, VT, USA). Briefly, 180 μL of freshly prepared DPPH solution (0.32 mM in methanol) was mixed with 20 μL of sample (dissolved in methanol, extract 250 µg/mL; compounds 62.5–1000 µM) in a 96-well plate. The mixture was incubated for 20 min in the dark at 25 °C, and then, the absorbance was measured at […]. […] Results are expressed in µg Trolox equivalents/µg extract or µM Trolox equivalents/µM compound. The DPPH radical scavenging activity (%) is calculated using Equation (1):(1) %inhibition=1−Asample−Ablank1/Acontrol−Ablank2×100%, where Asample is the absorbance of DPPH solution with a sample, Ablank1 is the absorbance of the test sample without DPPH, Acontrol is the absorbance of DPPH solution without a sample, Ablank2 is the absorbance of methanol, without DPPH or a sample.

[2] = ABTS radical scavenging assay; assay type: biochemical; details: Trolox equivalent antioxidant capacity
Description: as §1
The ABTS radical scavenging assay was carried out using the same EL800 microplate reader. Briefly, 0.2 mM of ABTS diammonium salt was prepared in 3.5 mM of potassium persulfate aqueous solution, and the mixture solution was then diluted 10 times using distilled water. The diluted solution was allowed to stand for 24 h in the dark at room temperature (about 25 °C) to produce ABTS radical cations (ABTS^+). For reaction, 290 μL of ABTS^+ solution was mixed with 10 μL of sample (dissolved in methanol, extract 62.5–125 µg/mL; compounds 20–250 µM) in a 96-well plate, and the mixture solution was allowed to react for 10 min at 25 °C in the dark. Then, the absorbance was measured at 750 nm. […] Results are expressed in µg Trolox equivalents/µg extract or µM Trolox equivalents/µM compound. The ABTS radical scavenging activity (%) is calculated using Equation (1) where Asample is the absorbance of ABTS^+ solution with a sample, Ablank1 is the absorbance of the test sample without ABTS^+, Acontrol is the absorbance of ABTS^+ solution without a sample, Ablank2 is the absorbance of buffer, without ABTS^+ or a sample.

[3] = ORAC (oxygen radical absorbance capacity) assay; assay type: biochemical; details: Trolox equivalent antioxidant capacity, ORAC assay (peroxyl radicals)
Description: as §1
The ORAC assay was carried out using a Fluoroskan Ascent FL microplate reader (Thermo, Waltham, MA, USA) using the method described previously with minor modifications. Antioxidants can scavenge the peroxyl radicals generated by AAPH, which prevent the degradation of the fluorescein and, therefore, prevent the loss of the fluorescence of fluorescein. Briefly, fluorescein sodium salt (117 nM) and AAPH (40 mM) were freshly prepared in 0.1 M phosphate-buffered saline (PBS, pH 7.4). For reaction, 120 µL of fluorescein sodium salt (117 nM) and 20 µL of sample (dissolved in methanol, extract 10–20 µg/mL; compounds 10–160 µM) were mixed in a black 96-well plate and pre-incubated for 15 min at 37 °C. Next, 60 µL of AAPH (40 mM) was added, and the fluorescence was measured 100 times (interval 1 min) at excitation and emission wavelengths of 485 nm and 538 nm, respectively, by the microplate reader maintained at 37 °C. […] The relative ORAC values are expressed in µg Trolox equivalents/µg extract or µM Trolox equivalents/µM compound.

aldose reductase (AR) = molecular target: T1, aldose reductase (AR) (Rattus norvegicus, UniProt P07943); experiment: Aldose reductase (AR) inhibition assay, rat lens homogenate; assay type: biochemical, Sprague–Dawley rats; details: for IC50: rat lens AR homogenate
T1 construct: centrifuged at 10,000× g for 30 min at 4 °C (Centrifuge 5417R, Eppendorf, Germany) to obtain AR homogenate (in the supernatant); from tissue; host or cells: eye lenses of Sprague–Dawley rats
Description: For the extraction of AR, the rat eye lenses were grounded in a precooled mortar (−70 °C) and extracted using 0.1 M PBS (pH 6.2; about 0.5 mL of PBS per two frozen rat lenses).
A 96-well plate-based AR inhibition assay was used in this study, which was modified from a previous method. In principle, the rate of the absorbance decrease of NADPH at 340 nm (OD340 nm) was used for evaluation of the AR inhibitory activity. […] Then, as soon as 20 μL of the substrate (DL-glyceraldehyde dimer, 25 mM in 0.1 M PBS, pH 7.0) was added, the absorbance of the reaction solution at 340 nm was measured for 6 min using an Epoch microplate spectrophotometer (BioTek Instruments, Highland Park, IL, USA). […] The samples were first prepared at high concentrations in DMSO or in a mixture of DMSO and water and then diluted using water shortly before the experiment. The concentration of DMSO was kept within 0.2% (v/v) in the reaction system. […] The AR inhibition ratio (%) for the samples was calculated using Equation (4):(4) %inhibition=1−Slopes−Slopeb/Slopec−Slopeb×100%, where Slopec, Slopes, and Slopeb are the slopes obtained from the OD340 nm versus the reaction time (min) dotted lines of the control group (without sample), sample group (with enzyme and sample), and blank group (without enzyme or sample), respectively. |Slope| is the absolute value of Slope.

[4] = molecular target: fructose-mediated bovine serum albumin (BSA) glycation (Bos taurus, UniProt P02769); experiment: Antiglycation assay, fructose-mediated BSA glycation model; details: for inhibition at 12.5 µM / inhibition at 25 µM / inhibition at 50 µM / inhibition at 100 µM: read-out: Antiglycation activity, inhibition (%)
[5] = tested on: streptozotocin-induced diabetic rats; details: cited from earlier work
[6] = cited from earlier work
diabetic rats = details: cited from earlier work
[7] = tested on: streptozotocin-induced diabetic cats; details: cited from earlier work
diabetic Octodon degus = tested on: diabetic Octodon degus; design: method as in PMID 401544; details: oral administration; cited from earlier work
[8] = 6.25 µM, read-out: AR inhibition activity, inhibition (%)
[9] = 12.5 µM, read-out: AR inhibition activity, inhibition (%)
[10] = 25 µM, read-out: AR inhibition activity, inhibition (%)
[11] = 50 µM, read-out: AR inhibition activity, inhibition (%)
[12] = read-out: AR inhibition activity, inhibition (%)

fructose-mediated bovine serum albumin (BSA) glycation, sequence (P02769 25-607): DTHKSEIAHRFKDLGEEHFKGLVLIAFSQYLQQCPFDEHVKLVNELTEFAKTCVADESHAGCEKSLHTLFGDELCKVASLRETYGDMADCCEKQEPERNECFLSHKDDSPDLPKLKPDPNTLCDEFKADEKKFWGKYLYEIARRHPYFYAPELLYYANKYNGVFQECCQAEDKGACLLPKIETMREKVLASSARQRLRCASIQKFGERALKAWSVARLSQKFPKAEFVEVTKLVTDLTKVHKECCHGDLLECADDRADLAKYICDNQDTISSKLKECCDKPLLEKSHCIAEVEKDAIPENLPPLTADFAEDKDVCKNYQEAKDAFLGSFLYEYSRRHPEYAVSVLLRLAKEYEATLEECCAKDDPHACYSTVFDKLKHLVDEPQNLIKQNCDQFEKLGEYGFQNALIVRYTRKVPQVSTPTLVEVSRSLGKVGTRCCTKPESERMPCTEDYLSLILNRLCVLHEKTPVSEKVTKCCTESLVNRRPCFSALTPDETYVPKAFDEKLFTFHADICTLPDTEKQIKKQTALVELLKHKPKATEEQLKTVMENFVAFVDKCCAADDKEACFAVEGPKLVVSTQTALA

inhibition at 6.25 µM (aldose reductase (AR); [8]): 8.57 ± 0.06%
inhibition at 12.5 µM (aldose reductase (AR); [9]): 14.4 ± 0.6%
inhibition at 25 µM (aldose reductase (AR); [10]): 27.2 ± 0.36%
inhibition at 50 µM (aldose reductase (AR); [11]): 53.3 ± 2.76%
IC50 (aldose reductase (AR)): 47 ± 2.28 µM
IC50 [4]: 60.5 ± 2.62 µM
inhibition at 12.5 µM [4]: < 0%
inhibition at 25 µM [4]: 14.9 ± 3.87%
inhibition at 50 µM [4]: 44.5 ± 2.54%
inhibition at 100 µM [4]: 68.4 ± 0.92%
Compound: O=C(O)c1ccc(O)c(Nc2cc(C(=O)O)ccc2O)c1 [4,4′-dihydroxy-3,3′-imino-di-benzoic acid]
TEAC, DPPH [1]: 1.38 ± 0.05 ^d µM trolox/µM Compound
TEAC, ABTS [2]: 1.27 ± 0.03 ^c µM trolox/µM Compound
TEAC, ORAC [3]: 5.75 ± 0.26 ^b µM trolox/µM Compound

Compound: Cl.N=C(N)NN [Aminoguanidine hydrochloride, aminoguanidine hydrochloride, reference compound]
Antiglycation activity, inhibition (%) ([4]; 1000 µM): 10.99 ± 0.07%
Antiglycation activity, inhibition (%) ([4]; 2000 µM): 44.58 ± 0.54%
Antiglycation activity, inhibition (%) ([4]; 4000 µM): 81.26 ± 0.88%
Antiglycation IC50 ([4]; fructose-mediated BSA glycation, 14 days, 37 °C): 317.36 µg/mL
IC50 ([4]; read-out: Antiglycation activity, IC50, fructose-mediated BSA glycation): 2181 ± 8.11 µM

Compound: O=C(O)c1cc(O)c(O)c(O)c1 [Gallic acid (3), gallic acid]
TEAC, DPPH [1]: 3.01 ± 0.04 ^a µM trolox/µM Compound
TEAC, DPPH ([1]; listed as gallic acid): 3.01 µM trolox/µM Compound
TEAC, ABTS [2]: 3.35 ± 0.06 ^b µM trolox/µM Compound
TEAC, ORAC [3]: 1.43 ± 0.08 ^d µM trolox/µM Compound
inhibition at 6.25 µM (aldose reductase (AR); [8]): < 0%
inhibition at 12.5 µM (aldose reductase (AR); [9]): 4.16 ± 5.43%
inhibition at 25 µM (aldose reductase (AR); [10]): 4.16 ± 1.81%
inhibition at 50 µM (aldose reductase (AR); [11]): 13.5 ± 1.21%
Effect on oxidative stress [5]: ameliorate the oxidative stress
inhibition at 12.5 µM [4]: < 0%
inhibition at 25 µM [4]: < 0%
inhibition at 50 µM [4]: 3.69 ± 2.97%
inhibition at 100 µM [4]: 8.42 ± 1.27%

Compound: O=C(O)[C@H]1O[C@@H](Oc2c(-c3ccc(O)c(O)c3)oc3cc(O)cc(O)c3c2=O)[C@H](O)[C@@H](O)[C@@H]1O [Miquelianin (7), miquelianin]
TEAC, DPPH [1]: 1.97 ± 0.02 ^c µM trolox/µM Compound
TEAC, ABTS [2]: 0.99 ± 0.05 ^f µM trolox/µM Compound
TEAC, ORAC [3]: 5.85 ± 0.20 ^b µM trolox/µM Compound
IC50 (aldose reductase (AR)): 7.93 ± 0.4 µM
inhibition at 3.125 µM (aldose reductase (AR); [12]): 29.7 ± 1.21%
inhibition at 6.25 µM (aldose reductase (AR); [12]): 44.5 ± 2.11%
inhibition at 12.5 µM (aldose reductase (AR); [12]): 59.1 ± 6.86%
inhibition at 25 µM (aldose reductase (AR); [12]): 76.7 ± 1.21%
IC50 [4]: 24.5 ± 0.52 µM
inhibition at 12.5 µM [4]: 24.9 ± 2.12%
inhibition at 25 µM [4]: 49.4 ± 1.26%
inhibition at 50 µM [4]: 78 ± 2.28%
inhibition at 100 µM [4]: 90 ± 1.92%

Compound: O=C(O)c1ccc(O)c(O)c1 [Protocatechuic acid (4), protocatechuic acid]
TEAC, DPPH [1]: 0.72 ± 0.01 ^f µM trolox/µM Compound
TEAC, ABTS [2]: 0.88 ± 0.03 ^g µM trolox/µM Compound
TEAC, ORAC [3]: 5.79 ± 0.32 ^b µM trolox/µM Compound
inhibition at 6.25 µM (aldose reductase (AR); [12]): 0.96 ± 2.11%
inhibition at 12.5 µM (aldose reductase (AR); [12]): 2.67 ± 2.71%
inhibition at 25 µM (aldose reductase (AR); [12]): 7.14 ± 0.6%
inhibition at 50 µM (aldose reductase (AR); [12]): 7.78 ± 1.51%
Effect on oxidative stress [5]: ameliorate the oxidative stress
inhibition at 12.5 µM [4]: 5.26 ± 4.29%
inhibition at 25 µM [4]: 11.4 ± 3.92%
inhibition at 50 µM [4]: 36.1 ± 0.78%
inhibition at 100 µM [4]: 48.4 ± 1.76%

Compound: O=c1c(O)c(-c2ccc(O)c(O)c2)oc2cc(O)cc(O)c12 [Quercetin (10), quercetin]
TEAC, DPPH [1]: 2.14 ± 0.03 ^b µM trolox/µM Compound
TEAC, ABTS [2]: 3.61 ± 0.03 ^a µM trolox/µM Compound
TEAC, ABTS ([2]; listed as quercetin): 3.61 µM trolox/µM Compound
TEAC, ORAC [3]: 6.93 ± 0.30 ^a µM trolox/µM Compound
inhibition at 3.125 µM (aldose reductase (AR); [12]): 12.9 ± 2.11%
inhibition at 6.25 µM (aldose reductase (AR); [12]): 26.3 ± 1.21%
inhibition at 12.5 µM (aldose reductase (AR); [12]): 43 ± 3.02%
inhibition at 25 µM (aldose reductase (AR); [12]): 60 ± 1.21%
Effect on oxidative stress [5]: ameliorate the oxidative stress
Inhibition of AGEs by trapping methylglyoxal [6]: inhibit AGEs by trapping methylglyoxal
Progression of lens opacification (diabetic rats): delay the progression of lens opacification
Impaired cardiac function [7]: partially reverse the impaired cardiac function
inhibition at 12.5 µM [4]: 19.4 ± 1.76%
inhibition at 25 µM [4]: 35.4 ± 0.92%
inhibition at 50 µM [4]: 67.47 ± 0.24%
inhibition at 100 µM [4]: 84.3 ± 1.39%

Compound: C[C@@H]1O[C@@H](Oc2c(-c3ccc(O)c(O)c3)oc3cc(O)cc(O)c3c2=O)[C@H](O)[C@H](O)[C@H]1O [Quercitrin (9), quercitrin]
TEAC, DPPH [1]: 0.92 ± 0.01 ^e µM trolox/µM Compound
TEAC, ABTS [2]: 1.07 ± 0.05 ^e µM trolox/µM Compound
TEAC, ORAC [3]: 5.32 ± 0.29 ^c µM trolox/µM Compound
inhibition at 0.049 µM (aldose reductase (AR); [12]): 12 ± 0.82%
inhibition at 0.098 µM (aldose reductase (AR); [12]): 33.3 ± 2.17%
inhibition at 0.195 µM (aldose reductase (AR); [12]): 54.6 ± 1.78%
inhibition at 3.125 µM (aldose reductase (AR); [12]): 94.35 ± 0.3%
Effect on oxidative stress [5]: ameliorate the oxidative stress
Inhibition of AGEs by trapping methylglyoxal [6]: inhibit AGEs by trapping methylglyoxal
Accumulation of sorbitol in the lens (diabetic Octodon degus): significantly decreased
Onset of cataract (diabetic Octodon degus): delayed
IC50 [4]: 17.6 ± 0.28 µM
inhibition at 12.5 µM [4]: 32.3 ± 0.24%
inhibition at 25 µM [4]: 75.2 ± 2.52%
inhibition at 50 µM [4]: 89.1 ± 1.26%
inhibition at 100 µM [4]: 94.3 ± 1.39%

inhibition at 6.25 µM (aldose reductase (AR); [8]): < 0%
inhibition at 12.5 µM (aldose reductase (AR); [9]): 0.32 ± 1.21%
inhibition at 25 µM (aldose reductase (AR); [10]): 5.86 ± 5.42%
inhibition at 50 µM (aldose reductase (AR); [11]): 7.36 ± 0.3%
inhibition at 12.5 µM [4]: < 0%
inhibition at 25 µM [4]: < 0%
inhibition at 50 µM [4]: < 0%
inhibition at 100 µM [4]: < 0%
Compound: O=C(O)C1=C[C@@H](O)[C@@H](O)[C@H](O)C1 [Shikimic acid (2), shikimic acid]

Source: article PMC7796107, “Efficient Separation of Phytochemicals from Muehlenbeckia volcanica (Benth.) Endl. by Polarity-Stepwise Elution Counter-Current Chromatography and Their Antioxidant, Antiglycation, and Aldose Reductase Inhibition Potentials” (Molecules, 2021)
